# Where a name gives a salt, the structure may show the parent alone.
# What was measured:
# Aurora2 = target: T1, Aurora2 (Homo sapiens, UniProt O14965); assay: Aurora2 enzyme assay, NuMA substrate phosphorylation (Flashplate); type: biochemical; conditions: read-out: IC 50 Aurora2
# T1 construct: Aurora 2: whole recombinant protein comprising an N-terminal histidine tail; His tag (histidine tail) (N); made in house; host or cells: E. coli
# T1 sequence (O14965 1-403): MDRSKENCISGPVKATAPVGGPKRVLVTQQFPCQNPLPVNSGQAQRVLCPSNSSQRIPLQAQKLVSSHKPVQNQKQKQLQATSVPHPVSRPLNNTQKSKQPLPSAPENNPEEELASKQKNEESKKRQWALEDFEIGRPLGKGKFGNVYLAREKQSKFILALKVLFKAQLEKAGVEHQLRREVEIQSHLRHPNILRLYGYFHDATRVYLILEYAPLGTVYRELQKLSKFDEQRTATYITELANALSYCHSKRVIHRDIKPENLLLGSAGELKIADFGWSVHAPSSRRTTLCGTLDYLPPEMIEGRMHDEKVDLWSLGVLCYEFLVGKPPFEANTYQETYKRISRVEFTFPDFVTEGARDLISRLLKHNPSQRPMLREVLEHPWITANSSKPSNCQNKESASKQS
# Method in brief: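 Recombinant full-length N-His Aurora2 (E. coli), 10 nM, phosphorylates 500 nM His-NuMA fragment with 1 µM ATP plus [33P]ATP in Tris/HCl pH 7.5, NaCl, MgCl2, DTT, 37 °C, 30 min, on Ni-chelate Flashplates. Incorporated 33P counted by scintillation; percent inhibition versus enzyme control after background subtraction.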
# human KDR enzyme = target: T2, human KDR enzyme (Homo sapiens, UniProt P35968); assay: KDR substrate phosphorylation assay (scintillation, 96-well plate); type: biochemical
# T2 construct: The cytoplasmic domain of the human KDR enzyme was cloned in the form of a GST fusion; GST; made in house; host or cells: SF21 insect cells (baculovirus, pFastBac)
# Method in brief: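 GST-fused cytoplasmic domain of human KDR (Sf21-expressed, ~60% pure; 100 ng) mixed with compound at 4 °C in MOPS buffer pH 7.2 with Mg2+/Mn2+, DTT, EGTA, vanadate, NaF. Started with 2 μg GST-PLCγ SH2-SH3, γ33P-ATP and cold ATP (2 μM in starting solution); 1 h, 37 °C, EDTA stop. Result: % inhibition vs no-compound control.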
# T2 sequence (P35968 786-1356 limits assumed): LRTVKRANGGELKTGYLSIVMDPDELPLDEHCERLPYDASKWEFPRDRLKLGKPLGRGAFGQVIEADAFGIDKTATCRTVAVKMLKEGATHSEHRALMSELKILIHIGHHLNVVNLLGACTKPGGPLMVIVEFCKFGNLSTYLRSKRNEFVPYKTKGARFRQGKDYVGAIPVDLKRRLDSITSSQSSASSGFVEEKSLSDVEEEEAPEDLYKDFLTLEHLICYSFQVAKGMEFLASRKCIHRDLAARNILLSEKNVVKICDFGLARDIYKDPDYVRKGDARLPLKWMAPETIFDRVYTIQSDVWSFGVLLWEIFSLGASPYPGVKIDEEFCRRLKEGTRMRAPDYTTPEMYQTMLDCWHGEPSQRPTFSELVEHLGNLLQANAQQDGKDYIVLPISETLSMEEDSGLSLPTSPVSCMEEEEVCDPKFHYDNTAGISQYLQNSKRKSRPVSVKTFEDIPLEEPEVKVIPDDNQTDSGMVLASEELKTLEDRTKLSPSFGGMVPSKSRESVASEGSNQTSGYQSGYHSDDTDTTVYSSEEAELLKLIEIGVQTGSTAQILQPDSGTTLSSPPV
IC50 (Aurora2),melting point,IC50 (human KDR enzyme),SMILES
200 nM,,,"Nc1n[nH]c2cc(-c3ccc(NS(=O)(=O)c4cccc(Cl)c4Cl)cc3)ccc12 [Example 2, 1-[4-(3-Amino-1H-indazol-6-yl)phenyl]-2,3-dichlorobenzenesulfonamide hydrochloride]"
133 nM,196 °C,864 nM,"O=C(Nc1n[nH]c2cc(-c3ccc(NS(=O)(=O)c4cccc(Cl)c4Cl)cc3)ccc12)c1ccsc1 [Example 3, 3-Thiophenecarboxylic acid {6-[4-(2,3dichlorobenzenesulfonylamino)phenyl]-1H-indazol-3-yl}amide]"
37 nM,,1870 nM,"O=C(Nc1n[nH]c2c(F)c(-c3ccc(NS(=O)(=O)c4cccc(Cl)c4Cl)cc3)ccc12)c1ccsc1 [Example 5, 3-Thiophenecarboxylic acid {6-[4-(2,3-dichlorobenzenesulfonylamino)-7-fluorophenyl]-1H-indazol-3-yl}amide]"
87 nM,,6590 nM,"Nc1n[nH]c2c(F)c(-c3ccc(NS(=O)(=O)c4cccc(Cl)c4Cl)cc3)ccc12 [Example 8, 1-[4-(3-Amino-1H-indazol-6-yl)-7-fluorophenyl]-2,3-dichlorobenzenesulfonamide hydrochloride]"
